# Reference: patent EP0006718A1, “1.2.4-Triazolidine-3.5-dione derivatives, process for their preparation and pharmaceutical compositions containing them” (BEECHAM GROUP PLC, priority 1978, dated 1980)
# Assays:
# [1] = system: indomethacin induced gastric damage; test: Anti-ulcer activity: inhibition of indomethacin induced gastric damage (method of Eleghe); type: in vivo; details: Rattus norvegicus, 30 minutes before 15mg/kg indomethacin s.c., rats sacrificed 4 hours later
# Method: Anti-ulcer activity of the compound of Example 4 was assessed by the inhibition of indomethacin induced gastric damage in the rat according to the method of Eleghe (1974) Israeli J. Med. Sci. 10. 1451. Rats were starved overnight given 15mg/kg indomethacin subcutaneously and sacrificed 4 hours later. Stomachs were reflated with n. saline, cut along the greater curvature pinned out and scored for gastric damage.
# Groups of 7 rats were used for each treatment and the test compound or vehicle was administered 30 minutes prior to giving the indomethacin. Varying doses of test compound were administered orally and control groups receiving vehicle only were set up simultaneously. Mean values for each treatment were obtained and the Mann Witney test applied for significance of difference between the values obtained with the treatments.
# [2] = system: 5-hydroxy-tryptamine or histamine induced bronchoconstriction; test: Broncho-dilation activity: inhibition of induced bronchoconstriction (Konzett-Rossler preparation); type: in vivo; details: Cavia porcellus, iv; anaesthetised artificially respired guinea-pig; read-out: ED 50 value for inhibition of bronchoconstriction
# From the text: The compound of Example 4 was examined for its ability to inhibit 5-hydroxy-tryptamine or histamine induced bron- choconstrictioh in the anaesthetised artifically respired guinea-pig (Konzett-Rossler preparation).
smiles,measurement,setting,value
"Cn1c(=O)n(CCCCCCC(=O)O)n(CCC(C)(O)COc2ccccc2)c1=O (stereo not shown) [Example 4, 1-(6'-carboxyhexyl)-2-(3""-hydroxy-3""-methyl-4""-phenoxybutyl)-4-methyl'-1,2,4-triazolidine-3,5-dione]",inhibition at 25 mg/kg,[1]; 25 mg/kg p.o.,56%
same,inhibition at 50 mg/kg,[1]; 50 mg/kg p.o.,50%
same,inhibition at 100 mg/kg,[1]; 100 mg/kg p.o.,92%
same,ED50,[2],0.039 mg/kg
